How the values were obtained:
southern crabgrass [1] = assay: Test Example 4: herbicidal effect by soil treatment (Table 19, symbol F); format: in vivo, southern crabgrass (Digitaria ciliaris); settings: amount of applied herbicide 320 g/ha
How it was run: (§1)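 Applied as a water-diluted emulsion, the compound was sprayed onto soil covering newly sown seeds. Evaluation came three weeks after application, in a greenhouse held at 25° C. to 30° C.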

wild oat [2] = assay: Test Example 5: herbicidal effect by foliage application, plastic box (Table 20, symbol I); format: in vivo, wild oat (Avena fatua); settings: foliage application, 320 g/ha, three weeks after application
How it was run: (§2)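 Sow seeds spot-wise in sterilized diluvial soil; cover with ~1.5 cm soil. Grow 14 days in greenhouse, 25° C. to 30° C. Spray foliage with emulsion diluted to predetermined amount. Rate effect after 3 weeks.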

blackgrass [3] = assay: Test Example 4: herbicidal effect by soil treatment (Table 19, symbol J); format: in vivo, blackgrass (Alopecurus myosuroides); settings: amount of applied herbicide 320 g/ha
How it was run: as §1

barnyard grass [4] = assay: Test Example 5: herbicidal effect by foliage application, plastic box (Table 20, symbol H); format: in vivo, barnyard grass (Echinochloa crus-galli); settings: foliage application, 320 g/ha, three weeks after application
How it was run: as §2

rice flat sedge = assay: Test Example 3: herbicidal effect by foliage application, Wagner pot (Table 18, symbol E); format: in vivo, rice flat sedge (Cyperus iria); settings: 320 g/ha
How it was run: (§3)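 Plants were sown in alluvial soil held under 0.1–0.5 cm standing water and grown 14 days in a greenhouse at 25–30 °C. An emulsifiable formulation, water-diluted to the set dose, was then sprayed onto the foliage, and effects were scored three weeks later using previously defined criteria.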

green foxtail [5] = assay: Test Example 4: herbicidal effect by soil treatment (Table 19, symbol G); format: in vivo, green foxtail (Setaria viridis); settings: amount of applied herbicide 320 g/ha
How it was run: as §1

false cleavers [6] = assay: Test Example 4: herbicidal effect by soil treatment (Table 19, symbol Q); format: in vivo, false cleavers (Galium spurium); settings: amount of applied herbicide 320 g/ha
How it was run: as §1

barnyard grass [7] = assay: Test Example 3: herbicidal effect by foliage application, Wagner pot (Table 18, symbol H); format: in vivo, barnyard grass (Echinochloa crus-galli); settings: 320 g/ha
How it was run: as §3

Chinese sprangletop = assay: Test Example 3: herbicidal effect by foliage application, Wagner pot (Table 18, symbol D); format: in vivo, chinese sprangletop (Leptochloa chinensis); settings: 320 g/ha
How it was run: as §3

Italian ryegrass [8] = assay: Test Example 4: herbicidal effect by soil treatment (Table 19, symbol K); format: in vivo, Italian ryegrass (Lolium multiflorum); settings: amount of applied herbicide 320 g/ha
How it was run: as §1

wild oat [9] = assay: Test Example 4: herbicidal effect by soil treatment (Table 19, symbol I); format: in vivo, wild oat (Avena fatua); settings: amount of applied herbicide 320 g/ha
How it was run: as §1

oval-leafed pondweed = assay: Test Example 1: herbicidal activity, application before weed generation under submerged conditions (Table 16, symbol C); format: in vivo, oval-leafed pondweed (Monochoria vaginalis); settings: 320 g/ha applied herbicide
How it was run: (§4)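 Alluvial soil was flooded to 4 cm depth, weed seeds were sown mixed and 2.5-leaf rice seedlings were transplanted. On sowing day, the compound's emulsion, diluted in water to a set dose, was applied to the water surface. Plants grew at 25–30 °C and were scored 0–5 after three weeks.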

chickweed [10] = assay: Test Example 5: herbicidal effect by foliage application, plastic box (Table 20, symbol P); format: in vivo, common chickweed (Stellaria media); settings: foliage application, 320 g/ha, three weeks after application
How it was run: as §2

velvetleaf [11] = assay: Test Example 4: herbicidal effect by soil treatment (Table 19, symbol M); format: in vivo, velvetleaf (Abutilon theophrasti); settings: amount of applied herbicide 320 g/ha
How it was run: as §1

redroot pigweed [12] = assay: Test Example 5: herbicidal effect by foliage application, plastic box (Table 20, symbol N); format: in vivo, redroot pigweed (Amaranthus retroflexus); settings: foliage application, 320 g/ha, three weeks after application
How it was run: as §2

chickweed [13] = assay: Test Example 4: herbicidal effect by soil treatment (Table 19, symbol P); format: in vivo, common chickweed (Stellaria media); settings: amount of applied herbicide 320 g/ha
How it was run: as §1

Italian ryegrass [14] = assay: Test Example 5: herbicidal effect by foliage application, plastic box (Table 20, symbol K); format: in vivo, Italian ryegrass (Lolium multiflorum); settings: foliage application, 320 g/ha, three weeks after application
How it was run: as §2

lambsquarters [15] = assay: Test Example 5: herbicidal effect by foliage application, plastic box (Table 20, symbol O); format: in vivo, lambsquarters (Chenopodium album); settings: foliage application, 320 g/ha, three weeks after application
How it was run: as §2

Japanese bulrush = assay: Test Example 1: herbicidal activity, application before weed generation under submerged conditions (Table 16, symbol B); format: in vivo, Japanese bulrush (Schoenoplectus juncoides); settings: 320 g/ha applied herbicide
How it was run: as §4

barnyard grass [16] = assay: Test Example 4: herbicidal effect by soil treatment (Table 19, symbol H); format: in vivo, barnyard grass (Echinochloa crus-galli); settings: amount of applied herbicide 320 g/ha
How it was run: as §1

lambsquarters [17] = assay: Test Example 4: herbicidal effect by soil treatment (Table 19, symbol O); format: in vivo, lambsquarters (Chenopodium album); settings: amount of applied herbicide 320 g/ha
How it was run: as §1

blackgrass [18] = assay: Test Example 5: herbicidal effect by foliage application, plastic box (Table 20, symbol J); format: in vivo, blackgrass (Alopecurus myosuroides); settings: foliage application, 320 g/ha, three weeks after application
How it was run: as §2

false cleavers [19] = assay: Test Example 5: herbicidal effect by foliage application, plastic box (Table 20, symbol Q); format: in vivo, false cleavers (Galium spurium); settings: foliage application, 320 g/ha, three weeks after application
How it was run: as §2

velvetleaf [20] = assay: Test Example 5: herbicidal effect by foliage application, plastic box (Table 20, symbol M); format: in vivo, velvetleaf (Abutilon theophrasti); settings: foliage application, 320 g/ha, three weeks after application
How it was run: as §2

green foxtail [21] = assay: Test Example 5: herbicidal effect by foliage application, plastic box (Table 20, symbol G); format: in vivo, green foxtail (Setaria viridis); settings: foliage application, 320 g/ha, three weeks after application
How it was run: as §2

persian speedwell [22] = assay: Test Example 4: herbicidal effect by soil treatment (Table 19, symbol R); format: in vivo, Persian speedwell (Veronica persica); settings: amount of applied herbicide 320 g/ha
How it was run: as §1

late watergrass = assay: Test Example 1: herbicidal activity, application before weed generation under submerged conditions (Table 16, symbol A); format: in vivo, late watergrass (Echinochloa oryzicola); settings: 320 g/ha applied herbicide
How it was run: as §4

southern crabgrass [23] = assay: Test Example 5: herbicidal effect by foliage application, plastic box (Table 20, symbol F); format: in vivo, southern crabgrass (Digitaria ciliaris); settings: foliage application, 320 g/ha, three weeks after application
How it was run: as §2

persian speedwell [24] = assay: Test Example 5: herbicidal effect by foliage application, plastic box (Table 20, symbol R); format: in vivo, Persian speedwell (Veronica persica); settings: foliage application, 320 g/ha, three weeks after application
How it was run: as §2

redroot pigweed [25] = assay: Test Example 4: herbicidal effect by soil treatment (Table 19, symbol N); format: in vivo, redroot pigweed (Amaranthus retroflexus); settings: amount of applied herbicide 320 g/ha
How it was run: as §1

windgrass [26] = assay: Test Example 5: herbicidal effect by foliage application, plastic box (Table 20, symbol L); format: in vivo, windgrass (Apera spica-venti); settings: foliage application, 320 g/ha, three weeks after application
How it was run: as §2

windgrass [27] = assay: Test Example 4: herbicidal effect by soil treatment (Table 19, symbol L); format: in vivo, windgrass (Apera spica-venti); settings: amount of applied herbicide 320 g/ha
How it was run: as §1

Row | SMILES | herbicidal effect rating, F: southern crabgrass (southern crabgrass [1]) | herbicidal effect grade, I: wild oat (wild oat [2]) | herbicidal effect rating, J: blackgrass (blackgrass [3]) | herbicidal effect grade, H: barnyard grass (barnyard grass [4]) | herbicidal effect on E (rice flat sedge), rating 0-5 (rice flat sedge) | herbicidal effect rating, G: green foxtail (green foxtail [5]) | herbicidal effect rating, Q: false cleavers (false cleavers [6]) | herbicidal effect on H (barnyard grass), rating 0-5 (barnyard grass [7]) | herbicidal effect on D (Chinese sprangletop), rating 0-5 (Chinese sprangletop) | herbicidal effect rating, K: Italian ryegrass (Italian ryegrass [8]) | herbicidal effect rating, I: wild oat (wild oat [9]) | Herbicidal effect on C: oval-leafed pondweed (grade 0-5) (oval-leafed pondweed) | herbicidal effect grade, P: chickweed (chickweed [10]) | herbicidal effect rating, M: velvetleaf (velvetleaf [11]) | herbicidal effect grade, N: redroot pigweed (redroot pigweed [12]) | herbicidal effect rating, P: chickweed (chickweed [13]) | herbicidal effect grade, K: Italian ryegrass (Italian ryegrass [14]) | herbicidal effect grade, O: lambsquarters (lambsquarters [15]) | Herbicidal effect on B: Japanese bulrush (grade 0-5) (Japanese bulrush) | herbicidal effect rating, H: barnyard grass (barnyard grass [16]) | also measured
1 | COc1ccc(-c2sc3ccccc3c2-c2c(O)c(C)nn(C)c2=O)cc1F [1-049] | 2 (Herbicidal rate of 20% or more and less than 40%) | 1 (Herbicidal rate of 5% or more and less than 20%) | 0 (Herbicidal rate of 5% or less (almost no effect)) | 4 (Herbicidal rate of 70% or more and less than 90%) | 5 (Herbicidal rate of 90% or more (almost completely withered)) | 3 (Herbicidal rate of 40% or more and less than 70%) | 0 (Herbicidal rate of 5% or less (almost no effect)) | 5 (Herbicidal rate of 90% or more (almost completely withered)) | 3 (Herbicidal rate of 40% or more and less than 70%) | 0 (Herbicidal rate of 5% or less (almost no effect)) | 0 (Herbicidal rate of 5% or less (almost no effect)) | 0 (Herbicidal rate of 5% or less (almost no effect)) | 5 (Herbicidal rate of 90% or more (almost completely withered)) | 0 (Herbicidal rate of 5% or less (almost no effect)) | 3 (Herbicidal rate of 40% or more and less than 70%) | 3 (Herbicidal rate of 40% or more and less than 70%) | 4 (Herbicidal rate of 70% or more and less than 90%) | 3 (Herbicidal rate of 40% or more and less than 70%) | 1 (Herbicidal rate of 5% or more and less than 20%) | 3 (Herbicidal rate of 40% or more and less than 70%) | herbicidal effect rating, O: lambsquarters (lambsquarters [17]): 3 (Herbicidal rate of 40% or more and less than 70%); herbicidal effect grade, J: blackgrass (blackgrass [18]): 0 (Herbicidal rate of 5% or less (almost no effect)); herbicidal effect grade, Q: false cleavers (false cleavers [19]): 3 (Herbicidal rate of 40% or more and less than 70%); herbicidal effect grade, M: velvetleaf (velvetleaf [20]): 5 (Herbicidal rate of 90% or more (almost completely withered)); herbicidal effect grade, G: green foxtail (green foxtail [21]): 4 (Herbicidal rate of 70% or more and less than 90%); herbicidal effect rating, R: persian speedwell (persian speedwell [22]): 4 (Herbicidal rate of 70% or more and less than 90%); Herbicidal effect on A: late watergrass (grade 0-5) (late watergrass): 4 (Herbicidal rate of 70% or more and less than 90%); herbicidal effect grade, F: southern crabgrass (southern crabgrass [23]): 4 (Herbicidal rate of 70% or more and less than 90%); herbicidal effect grade, R: persian speedwell (persian speedwell [24]): 5 (Herbicidal rate of 90% or more (almost completely withered)); herbicidal effect rating, N: redroot pigweed (redroot pigweed [25]): 4 (Herbicidal rate of 70% or more and less than 90%); herbicidal effect grade, L: windgrass (windgrass [26]): 0 (Herbicidal rate of 5% or less (almost no effect)); herbicidal effect rating, L: windgrass (windgrass [27]): 0 (Herbicidal rate of 5% or less (almost no effect))
2 | COc1ccc(F)c(-c2sc3ccccc3c2-c2c(O)c(C)nn(C)c2=O)c1 [1-053] | 2 (Herbicidal rate of 20% or more and less than 40%) | 3 (Herbicidal rate of 40% or more and less than 70%) | 0 (Herbicidal rate of 5% or less (almost no effect)) | 3 (Herbicidal rate of 40% or more and less than 70%) | 1 (Herbicidal rate of 5% or more and less than 20%) | 3 (Herbicidal rate of 40% or more and less than 70%) | 0 (Herbicidal rate of 5% or less (almost no effect)) | 3 (Herbicidal rate of 40% or more and less than 70%) | 0 (Herbicidal rate of 5% or less (almost no effect)) | 3 (Herbicidal rate of 40% or more and less than 70%) | 0 (Herbicidal rate of 5% or less (almost no effect)) | 1 (Herbicidal rate of 5% or more and less than 20%) | 5 (Herbicidal rate of 90% or more (almost completely withered)) | 2 (Herbicidal rate of 20% or more and less than 40%) | 4 (Herbicidal rate of 70% or more and less than 90%) | 5 (Herbicidal rate of 90% or more (almost completely withered)) | 3 (Herbicidal rate of 40% or more and less than 70%) | 4 (Herbicidal rate of 70% or more and less than 90%) | 2 (Herbicidal rate of 20% or more and less than 40%) | 1 (Herbicidal rate of 5% or more and less than 20%) | herbicidal effect rating, O: lambsquarters (lambsquarters [17]): 5 (Herbicidal rate of 90% or more (almost completely withered)); herbicidal effect grade, J: blackgrass (blackgrass [18]): 2 (Herbicidal rate of 20% or more and less than 40%); herbicidal effect grade, Q: false cleavers (false cleavers [19]): 3 (Herbicidal rate of 40% or more and less than 70%); herbicidal effect grade, M: velvetleaf (velvetleaf [20]): 5 (Herbicidal rate of 90% or more (almost completely withered)); herbicidal effect grade, G: green foxtail (green foxtail [21]): 4 (Herbicidal rate of 70% or more and less than 90%); herbicidal effect rating, R: persian speedwell (persian speedwell [22]): 3 (Herbicidal rate of 40% or more and less than 70%); Herbicidal effect on A: late watergrass (grade 0-5) (late watergrass): 3 (Herbicidal rate of 40% or more and less than 70%); herbicidal effect grade, F: southern crabgrass (southern crabgrass [23]): 3 (Herbicidal rate of 40% or more and less than 70%); herbicidal effect grade, R: persian speedwell (persian speedwell [24]): 5 (Herbicidal rate of 90% or more (almost completely withered)); herbicidal effect rating, N: redroot pigweed (redroot pigweed [25]): 4 (Herbicidal rate of 70% or more and less than 90%); herbicidal effect grade, L: windgrass (windgrass [26]): 3 (Herbicidal rate of 40% or more and less than 70%); herbicidal effect rating, L: windgrass (windgrass [27]): 0 (Herbicidal rate of 5% or less (almost no effect))
